Experimental data taken from patent US11981918B2, “Differentiation technique to generate dopaminergic neurons from induced pluripotent stem cells” (CEDARS-SINAI MEDICAL CENTER, priority 2018, dated 2024).
Entries after “also recorded” stand apart in the source; their conditions may differ. Where a SMILES comes first, the peptide text is derived from it. The star is where a group is joined. Cbz = O=C(OCc1ccccc1)*

Columns and labels:
[1] = test system: P53; assay: P53 level in DaN cultures under proteasome inhibition; format: cell-based, human; conditions: 24 hrs
From the text: (§1) […]. Western blot showing synuclein degradation under 24 hrs of MG132 proteosomal inhibitor (e). Western blot showing reduced LAMP1 protein in PD DaNs (f). […]. Data were normalized to 02iCTR for each differentiation and presented as a fold change (g). NIRF detection of oxidized dopamine from D30 DaN lysates (h)
(§2) Protein degradation can be largely divided into protosomal and autophagy/lysosomal degradation pathways.

[2] = test system: α-Synuclein; assay: α-Synuclein level in DaN cultures under proteasome inhibition; format: cell-based, human; conditions: 24 hrs
From the text: as §1, §2

[3] = test system: α-Synuclein; assay: α-Synuclein protein in iPSC-derived DaNs treated with lysosomal agonists (western blot); format: cell-based, human; conditions: for amount of α-Synuclein protein: DaNs from control lines; for amount of α-Synuclein protein / synuclein levels: treated for 3 days starting at day 27; for synuclein levels: EOSPD DaNs; for α-Synuclein levels: both control and PD DaNs, all treated lines
From the text: FIG. 5: Treatment with lysosomal agonists and Elevated p-PKCa in PD lines. […] Baseline levels of p-PKCa in d30 DaNs (b). Day 30 DaNs treated with PEP from multiple PD and control lines(c). Timecourse of PEP treatment and synuclein levels (d) Timecourse of PEP treatment SNCA (e) and TH (f) gene expression.
To test if the Inventors could reduce synuclein levels in our EOSPD DANs through activation of lysosomal specific pathways, the Inventors selected 3 lysosomal agonists. […] Starting at day 27, DaNs were treated for 3 days with the above lysosomal agonists.

[4] = test system: TH enzyme; assay: TH enzyme amount in iPSC-derived DaNs treated with lysosomal agonists (western blot); format: cell-based, human; conditions: both control and PD DaNs, treated for 3 days
[5] = test system: p-PKCa; assay: Phosphorylated PKC alpha in iPSC-derived DaNs after PEP005 treatment (western blot); format: cell-based, human
[6] = test system: LAMP1; assay: LAMP1 protein in DaNs after PEP treatment; format: cell-based, human; conditions: PD cells
[7] = test system: LC3; assay: LC3 protein in DaNs after PEP treatment; format: cell-based, human; conditions: PD cells
[8] = test system: cleaved caspase 3 (CC3); assay: Cleaved caspase 3 in DaNs after PEP treatment; format: cell-based, human; conditions: DaNs on drug treatment, most easily observed in PD cells; listed as PEP
From the text: (§3) The elevated phosphorylation of PKCa was absent in the undifferentiated iPSCs and no clear pattern was evident in peripheral blood from the individual patients indicating specificity to the differentiated DaNs. […].
(§4) It is likely that the toxicity of PEP is more specific to highly proliferative cells whereas our differentiated neurons are largely post mitotoic.

[9] = test system: SNCA; assay: SNCA gene expression timecourse of PEP treatment in DaNs; format: cell-based, human; conditions: 4 hours after PEP treatment
Procedure: (§5) FIG. 5: Treatment with lysosomal agonists and Elevated p-PKCa in PD lines. Western blot and relative band quantifications of d30 DaNs treated with indicated compounds for 72 hours (a). Baseline levels of p-PKCa in d30 DaNs (b). Day 30 DaNs treated with PEP from multiple PD and control lines(c). Timecourse of PEP treatment and synuclein levels (d) Timecourse of PEP treatment SNCA (e) and TH (f) gene expression. Confirmation of elevated synuclein and p-PKCa in addition control and PD lines (g)
as §3

[10] = test system: TH; assay: TH gene expression timecourse of PEP treatment in DaNs; format: cell-based, human; conditions: roughly 8 hours after initial exposure
Procedure: as §5, §3

[11] = test system: DaN cultures; format: cell-based, human; conditions: DaN cultures on drug treatment
From the text: as §4

[12] = test system: synuclein; assay: In vivo synuclein in striatum after injection of PEP into the ventricles of WT mice; set-up: species or system mouse; conditions: WT mice, 0.3, 3 and 30 μM injected into the ventricles, 1 and 5 days post injection
[13] = test system: TH; assay: In vivo TH in striatum after injection of PEP into the ventricles of WT mice; set-up: species or system mouse; conditions: WT mice, 0.3, 3 and 30 μM injected into the ventricles, 1 and 5 days post injection
[14] = test system: PKC C1 domains; conditions: cited from earlier work
[15] = test system: various cancer cell lines and primary acute myeloid leukaemia (AML) cells; conditions: cited from earlier work
[16] = test system: leukemic cell lines and primary AML cells; conditions: by activating PKCδ and sustained activation of ERK1/2; cited from earlier work
[17] = test system: PC12 cell model; conditions: cited from earlier work
[18] = test system: α-Synuclein; conditions: cited from earlier work
[19] = test system: neurons in Brain-Chip; format: cell-based, human
[20] = time-course, control and PD DaNs

## CC(C)C[C@@H](C=O)NC(=O)[C@H](CC(C)C)NC(=O)[C@H](CC(C)C)NC(=O)OCc1ccccc1 [MG132] (Cbz-Leu-Leu-Leu-aldehyde)
[1]
  P53 level: accumulation of P53
[2]
  α-Synuclein levels: no substantial change

## C/C=C(/C)C(=O)O[C@H]1C(C)=C[C@]23C(=O)[C@@H](C=C(CO)[C@@H](O)[C@]12O)[C@H]1[C@@H](C[C@H]3C)C1(C)C [PEP005, ingenol-3-angelate]
[3]
  amount of α-Synuclein protein: significantly reduced
  synuclein levels: substantially reduced
  α-Synuclein levels: reduced
[3]; listed as PEP
  α-Synuclein levels: reduced synuclein in all treated lines
[3]; [20]
  time in which α-Synuclein is degraded in response to drug treatment: ≤ 24 h
[4]
  amount of TH enzyme: increased amount of TH enzyme
[4]; listed as PEP
  amount of TH enzyme: increase in the amount of TH
[5]; 1 μM for 3 days, DaNs from all iPSC lines
  phosphorylation of PKCa: clearly ablated
[5]; control and PD DaNs, at endpoint of 72 hours treatment
  PKC alpha phosphorylation signal: completely ablating this signal
[5]; [20]
  time in which p-PKCa is degraded in response to drug treatment: ≤ 24 h
[6]
  LAMP1 response: does not appear to be replicated
[6]; listed as PEP
  LAMP1 response: neither LAMP1 nor LC3 respond
[7]
  LC3 response: neither LAMP1 nor LC3 respond
[8]
  cleaved (active) caspase 3: marked decrease; also recorded: decrease in the amount of active caspase 3
[9]
  SNCA gene expression: downregulated
[10]
  TH gene expression: upregulated
[11]
  LDH: nor do the Inventors see an increase in LDH
[12]
  synuclein in mouse striatum: Reduction of synuclein
[13]
  TH in mouse striatum: increase in TH
[14]
  selectivity for individual PKC isoforms: no selectivity
[15]
  proliferation: inhibiting proliferation
[16]
  apoptosis: induces apoptosis

## C=CCNc1ncnc2ccc(Br)cc12 [SMER28]
[3]
  amount of α-Synuclein protein: significantly reduced
  synuclein levels: only the PKC agonist PEP005 substantially reduced synuclein levels
[17]
  Huntington and α-Synuclein aggregates: reduce

## OC[C@H]1O[C@H](O[C@H]2O[C@H](CO)[C@@H](O)[C@H](O)[C@H]2O)[C@H](O)[C@@H](O)[C@@H]1O [Trehalose]
[3]
  amount of α-Synuclein protein: not Trehalose significantly reduced
  synuclein levels: only the PKC agonist PEP005 substantially reduced synuclein levels
[18]
  clearance of α-Synuclein: promote clearance

## NC1=N[C@H](O)[C@H]2[C@H]3O[C@]4(O)O[C@@H]([C@@H](O)[C@@]2(N1)[C@@H]4O)[C@]3(O)CO [tetrodotoxin]
[19]
  neuron activity (calcium imaging): Neuron activity ablated
